In the supplement of paper PMC10307832:

Each cell line was assayed with C1=CC2=NC=CN=C2C=C1/C=C/3\C(=O)NC(=O)S3 + Nc1nc2[nH]cc(CCc3ccc(C(=O)N[C@@H](CCC(=O)O)C(=O)O)cc3)c2c(=O)[nH]1 [Pemetrexed] (partner 0.2 µM) (assay: relative viability (nuclei count vs DMSO), 5 days (fraction); higher = more cells survive). Details: first compound 2 µM.
In short: (§1)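 Lung cancer cell lines, seeded in 1536-well plates, were treated the following day by pin tool with a single drug or with five library-drug doses (not always all listed) in √10 steps on top of a fixed anchor-drug dose. Cells were fixed and nuclei stained in one step after 5 days, and nuclei were counted. Relative viability is the nuclei count for treated wells divided by that for vehicle wells, reported as medians of duplicate plates.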
In the case of SW 900, the relative viability is reported as 0.487. NCI-H1648 was tested, and the relative viability was 0.777. With NCI-H1395 the relative viability was 0.732. In the case of NCI-H1792, the relative viability is reported as 0.47. With NCI-H1793 the relative viability was 0.715. NCI-H1563 gave a relative viability of 0.749. NCI-H1944 gave a relative viability of 0.584. NCI-H358 showed a relative viability of 0.181.

Each cell line was assayed with CCN1CCN(c2ccc(Nc3cc(N(C)C(=O)Nc4c(Cl)c(OC)cc(OC)c4Cl)ncn3)cc2)CC1 [BGJ398] + Cc1nc(Nc2ncc(C(=O)Nc3c(C)cccc3Cl)s2)cc(N2CCN(CCO)CC2)n1 [Dasatinib] (partner 0.075 µM) in the same assay as above. Details: first compound 0.01 µM.
In short: as §1
NCI-H522 was tested, and the relative viability was 0.641. NCI-H1623 showed a relative viability of 0.586. In the case of NCI-H727, the relative viability is reported as 0.462. Work on NCI-H1650 yielded a relative viability of 0.31. NCI-H1993 gave a relative viability of 0.694. With SW 1573 the relative viability was 0.439. NCI-H838 showed a relative viability of 0.278. LCLC-103H showed a relative viability of 0.471. NCI-H520 gave a relative viability of 0.138. NCI-H2126 showed a relative viability of 0.696. In the case of EMC-BAC-2, the relative viability is reported as 0.273. Cell Line NCI-H2085 has a relative viability of 0.272. With HCC-366 the relative viability was 0.626. In the case of NCI-H1666, the relative viability is reported as 0.764. Cell Line NCI-H596 has a relative viability of 0.515. LK-2 gave a relative viability of 0.286. In the case of NCI-H2087, the relative viability is reported as 0.824. Work on NCI-H2342 yielded a relative viability of 0.321. SK-MES-1 showed a relative viability of 0.421. Cell Line NCI-H2170 has a relative viability of 0.527. SW 900 showed a relative viability of 0.448. Cell Line NCI-H1395 has a relative viability of 0.41. NCI-H1792 gave a relative viability of 0.644. Work on NCI-H1793 yielded a relative viability of 0.286. NCI-H1563 showed a relative viability of 0.461. Cell Line NCI-H1944 has a relative viability of 0.166. Work on ABC-1 yielded a relative viability of 0.504. NCI-H358 gave a relative viability of 0.145.

Same assay, conditions: first compound 0.03162 µM
Work on NCI-H522 yielded a relative viability of 0.837. NCI-H1623 gave a relative viability of 0.525. NCI-H727 was tested, and the relative viability was 0.337. Cell Line NCI-H1993 has a relative viability of 0.595. SW 1573 gave a relative viability of 0.668. In the case of NCI-H838, the relative viability is reported as 0.337. With LCLC-103H the relative viability was 0.446. Cell Line NCI-H520 has a relative viability of 0.177. NCI-H2126 showed a relative viability of 0.646. EMC-BAC-2 gave a relative viability of 0.337. In the case of NCI-H2085, the relative viability is reported as 0.236. HCC-366 showed a relative viability of 0.681. NCI-H1666 was tested, and the relative viability was 0.802. In the case of NCI-H596, the relative viability is reported as 0.49. LK-2 was tested, and the relative viability was 0.248. With NCI-H2087 the relative viability was 0.898. NCI-H2342 was tested, and the relative viability was 0.33. In the case of SK-MES-1, the relative viability is reported as 0.33. With NCI-H2170 the relative viability was 0.427. SW 900 was tested, and the relative viability was 0.388. NCI-H1395 gave a relative viability of 0.397. For NCI-H1792, the relative viability was 0.783. In the case of NCI-H1793, the relative viability is reported as 0.398. NCI-H1563 showed a relative viability of 0.491. NCI-H1944 was tested, and the relative viability was 0.21. ABC-1 gave a relative viability of 0.539. In the case of NCI-H358, the relative viability is reported as 0.154.

Same assay, conditions: first compound 0.1 µM
With NCI-H522 the relative viability was 0.785. NCI-H1623 was tested, and the relative viability was 0.564. Cell Line NCI-H727 has a relative viability of 0.316. In the case of NCI-H1650, the relative viability is reported as 0.205. NCI-H1993 showed a relative viability of 0.611. For SW 1573, the relative viability was 0.466. For NCI-H838, the relative viability was 0.28. Work on LCLC-103H yielded a relative viability of 0.447. NCI-H520 was tested, and the relative viability was 0.138. For NCI-H2126, the relative viability was 0.565. With EMC-BAC-2 the relative viability was 0.355. NCI-H2085 was tested, and the relative viability was 0.215. Work on HCC-366 yielded a relative viability of 0.793. Work on NCI-H1666 yielded a relative viability of 0.911. NCI-H596 was tested, and the relative viability was 0.576. Work on LK-2 yielded a relative viability of 0.163. Work on NCI-H2087 yielded a relative viability of 0.808. Work on NCI-H2342 yielded a relative viability of 0.334. In the case of SK-MES-1, the relative viability is reported as 0.433. For NCI-H2170, the relative viability was 0.562. SW 900 gave a relative viability of 0.352. With NCI-H1395 the relative viability was 0.363. Cell Line NCI-H1792 has a relative viability of 0.741. In the case of NCI-H1793, the relative viability is reported as 0.403. NCI-H1563 was tested, and the relative viability was 0.432. In the case of NCI-H1944, the relative viability is reported as 0.23. ABC-1 was tested, and the relative viability was 0.608. With NCI-H358 the relative viability was 0.135.

Same assay, conditions: first compound 0.3162 µM
In the case of NCI-H522, the relative viability is reported as 0.779. With NCI-H1623 the relative viability was 0.525. NCI-H727 gave a relative viability of 0.384. Work on NCI-H1650 yielded a relative viability of 0.163. With NCI-H1993 the relative viability was 0.641. SW 1573 was tested, and the relative viability was 0.462. With NCI-H838 the relative viability was 0.257. Work on LCLC-103H yielded a relative viability of 0.487. NCI-H520 gave a relative viability of 0.142. For NCI-H2126, the relative viability was 0.687. Work on EMC-BAC-2 yielded a relative viability of 0.36. Work on NCI-H2085 yielded a relative viability of 0.279. HCC-366 gave a relative viability of 0.6. NCI-H1666 gave a relative viability of 0.759. NCI-H596 showed a relative viability of 0.506. In the case of LK-2, the relative viability is reported as 0.203. With NCI-H2087 the relative viability was 0.801. For NCI-H2342, the relative viability was 0.318. SK-MES-1 was tested, and the relative viability was 0.426. Work on NCI-H2170 yielded a relative viability of 0.545. With SW 900 the relative viability was 0.383. For NCI-H1395, the relative viability was 0.379. With NCI-H1792 the relative viability was 0.497. NCI-H1793 was tested, and the relative viability was 0.316. For NCI-H1563, the relative viability was 0.391. With NCI-H1944 the relative viability was 0.198. For ABC-1, the relative viability was 0.545. NCI-H358 was tested, and the relative viability was 0.169.

Same assay, conditions: first compound 1 µM
With NCI-H522 the relative viability was 0.76. In the case of NCI-H1623, the relative viability is reported as 0.478. Work on NCI-H727 yielded a relative viability of 0.447. NCI-H1650 was tested, and the relative viability was 0.17. In the case of NCI-H1993, the relative viability is reported as 0.578. SW 1573 showed a relative viability of 0.574. NCI-H838 gave a relative viability of 0.225. LCLC-103H gave a relative viability of 0.381. For NCI-H520, the relative viability was 0.146. NCI-H2126 showed a relative viability of 0.563. EMC-BAC-2 showed a relative viability of 0.314. For NCI-H2085, the relative viability was 0.229.
